Holding throughout (format): functional
In assay [1] the test system is Pseudomonas aeruginosa. Briefly: Antibacterial activity against Pseudomonas aeruginosa assessed as inhibition of bacterial growth by standard broth microdilution method. In general terms: Dilution methods test growth across graded concentrations, often in twofold steps.
For assay [2], the system named is Staphylococcus epidermidis. Briefly: Antibacterial activity against Staphylococcus epidermidis MTCC435 assessed as inhibition of bacterial growth by standard broth microdilution method.
Assay [3] deals with Escherichia coli. Briefly: Antibiofilm activity against Escherichia coli MTCC739 assessed as inhibition of biofilm formation.
For another assay, the system named is Klebsiella pneumoniae. Briefly: Antibacterial activity against Klebsiella pneumoniae assessed as inhibition of bacterial growth by standard broth microdilution method.
Assay [4] deals with Bacillus subtilis. Briefly: Antibacterial activity against Bacillus subtilis MTCC121 assessed as inhibition of bacterial growth by standard broth microdilution method.
The test system of assay [5] is Bacillus subtilis. Briefly: Potency index, ratio of ciprofloxacin MIC to test compound MIC for antibacterial activity against Bacillus subtilis MTCC121.
Assay [6] relates to Pseudomonas aeruginosa. As to the kind of experiment: Antibiofilm activity against Pseudomonas aeruginosa assessed as inhibition of biofilm formation.
Assay [7] has as its system Escherichia coli. Briefly: Antibacterial activity against Escherichia coli MTCC739 assessed as inhibition of bacterial growth by standard broth microdilution method.
Assay [8] relates to Bacillus subtilis. Briefly: Antibiofilm activity against Bacillus subtilis MTCC121 assessed as inhibition of biofilm formation.
Assay [9] deals with Staphylococcus aureus. Briefly: Antibiofilm activity against Staphylococcus aureus MTCC96 assessed as inhibition of biofilm formation.
Assay [10] has as its system Staphylococcus epidermidis. As to the kind of experiment: Potency index, ratio of ciprofloxacin MIC to test compound MIC for antibacterial activity against Staphylococcus epidermidis MTCC435.
The test system of assay [11] is Staphylococcus epidermidis. As to the kind of experiment: Antibiofilm activity against Staphylococcus epidermidis MTCC435 assessed as inhibition of biofilm formation.
In assay [12] the test system is Staphylococcus aureus. Briefly: Antibacterial activity against Staphylococcus aureus MTCC96 assessed as inhibition of bacterial growth by standard broth microdilution method.

As usually defined, the MIC is the smallest concentration in the dilution series that meets the test's criterion for growth inhibition.

The structures appear in SMILES notation. Converted amounts (≈) assume the structure as drawn.

For the compound `O=S1(=O)Cn2nnc(-c3ccccc3Cl)c2-c2ccccc21`, the minimum inhibitory concentration (MIC) was 25 µg/mL (≈ 75.4 µM) with Pseudomonas aeruginosa [1]; 3.12 µg/mL (≈ 9.4 µM) in assay [2]; 50 µg/mL (≈ 151 µM) in the assay with Klebsiella pneumoniae; 3.12 µg/mL (≈ 9.4 µM) with Bacillus subtilis [4]; 50 µg/mL (≈ 151 µM) in the assay with Escherichia coli [7]; 6.25 µg/mL (≈ 18.8 µM) in the assay on Staphylococcus aureus [12]. For the same compound, the BIC in the assay with Escherichia coli [3] amounted to 48 µg/mL; in the assay on Pseudomonas aeruginosa [6], 22.8 µg/mL; in the assay with Bacillus subtilis [8] it was 4.15 µg/mL; in the assay with Staphylococcus aureus [9] it was 5.88 µg/mL; in assay [11], 2.94 µg/mL. The Ratio (in the assay with Bacillus subtilis [5]; in assay [10]) was 2 each time.
In the case of `O=C(O)c1cn(C2CC2)c2cc(N3CCNCC3)c(F)cc2c1=O` [CIPROFLOXACIN], the MIC in the assay on Pseudomonas aeruginosa [1] turned out to be 1.56 µg/mL (≈ 4.71 µM); in assay [2], 6.25 µg/mL (≈ 18.9 µM); in the assay on Klebsiella pneumoniae, 3.12 µg/mL (≈ 9.42 µM); in the assay on Bacillus subtilis [4], 6.25 µg/mL (≈ 18.9 µM); in the assay on Staphylococcus aureus [12] it was 3.12 µg/mL (≈ 9.42 µM). In addition, the BIC in the assay with Escherichia coli [3] amounted to 4.29 µg/mL; in the assay on Pseudomonas aeruginosa [6], 2.75 µg/mL; in the assay with Bacillus subtilis [8], 5.5 µg/mL; in the assay on Staphylococcus aureus [9] it was 4.88 µg/mL; in assay [11] it was 2.24 µg/mL.
Regarding `O=S1(=O)Cn2nnc(-c3ccc(Br)cc3)c2-c2ccccc21`, the MIC with Pseudomonas aeruginosa [1] is 25 µg/mL (≈ 66.4 µM); in assay [2] it was 50 µg/mL (≈ 133 µM); in the assay with Klebsiella pneumoniae, 50 µg/mL (≈ 133 µM); with Bacillus subtilis [4], 12.5 µg/mL (≈ 33.2 µM); in the assay with Escherichia coli [7] it was 6.25 µg/mL (≈ 16.6 µM); with Staphylococcus aureus [12] it was 25 µg/mL (≈ 66.4 µM). Moreover, the BIC in the assay on Escherichia coli [3] came to 10.9 µg/mL; in the assay with Pseudomonas aeruginosa [6] it was 20.4 µg/mL; in the assay on Bacillus subtilis [8], 23.9 µg/mL; in the assay on Staphylococcus aureus [9], 28.1 µg/mL; in assay [11] it was 57.6 µg/mL.
As for `COc1cccc(-c2nnn3c2-c2ccccc2S(=O)(=O)C3)c1`, the MIC was determined as 50 µg/mL (≈ 153 µM) in the assay with Pseudomonas aeruginosa [1]; 12.5 µg/mL (≈ 38.2 µM) in assay [2]; 25 µg/mL (≈ 76.4 µM) in the assay with Klebsiella pneumoniae; 6.25 µg/mL (≈ 19.1 µM) in the assay on Bacillus subtilis [4]; 50 µg/mL (≈ 153 µM) with Escherichia coli [7]; 6.25 µg/mL (≈ 19.1 µM) in the assay with Staphylococcus aureus [12]. In addition, the BIC in the assay with Escherichia coli [3] was found to be 52.3 µg/mL; with Pseudomonas aeruginosa [6], 47.3 µg/mL; in the assay on Bacillus subtilis [8] it was 3.5 µg/mL; with Staphylococcus aureus [9], 4.2 µg/mL; in assay [11], 24.8 µg/mL.
For the compound `COc1ccc(-c2nnn3c2-c2ccccc2S(=O)(=O)C3)cc1`, the MIC in the assay on Pseudomonas aeruginosa [1] was over 50 µg/mL; in assay [2] it was 25 µg/mL (≈ 76.4 µM); in the assay with Klebsiella pneumoniae it was over 50 µg/mL; in the assay with Bacillus subtilis [4] it was 25 µg/mL (≈ 76.4 µM); in the assay on Escherichia coli [7], over 50 µg/mL; with Staphylococcus aureus [12], 50 µg/mL (≈ 153 µM).
For the compound `Clc1ccccc1-c1nnn2c1-c1ccccc1SC2`, the MIC in the assay on Pseudomonas aeruginosa [1] is 50 µg/mL (≈ 167 µM); in [2], 25 µg/mL (≈ 83.4 µM); in the assay with Klebsiella pneumoniae it was over 50 µg/mL; with Bacillus subtilis [4], 12.5 µg/mL (≈ 41.7 µM); in the assay on Escherichia coli [7], over 50 µg/mL; in the assay on Staphylococcus aureus [12], 6.25 µg/mL (≈ 20.8 µM). Besides, the BIC with Pseudomonas aeruginosa [6] is 48 µg/mL; with Bacillus subtilis [8], 26.1 µg/mL; in the assay with Staphylococcus aureus [9] it was 10.7 µg/mL; in assay [11] it was 21.2 µg/mL.
As for `Cc1cccc(-c2nnn3c2-c2ccccc2S(=O)(=O)C3)c1`, the MIC in the assay with Pseudomonas aeruginosa [1] is over 50 µg/mL; in [2], 50 µg/mL (≈ 161 µM); in the assay with Klebsiella pneumoniae it was over 50 µg/mL; in the assay with Bacillus subtilis [4], 50 µg/mL (≈ 161 µM); in the assay on Escherichia coli [7], over 50 µg/mL; with Staphylococcus aureus [12] it was over 50 µg/mL.
Turning to `COc1cccc(-c2nnn3c2-c2ccccc2SC3)c1`, the MIC in the assay with Pseudomonas aeruginosa [1] is over 50 µg/mL; in [2] it was 50 µg/mL (≈ 169 µM); in the assay with Klebsiella pneumoniae, over 50 µg/mL; with Bacillus subtilis [4], 25 µg/mL (≈ 84.6 µM); in the assay on Escherichia coli [7], 50 µg/mL (≈ 169 µM); with Staphylococcus aureus [12] it was 25 µg/mL (≈ 84.6 µM).
On to `COc1ccc(-c2nnn3c2-c2ccccc2SC3)cc1`, for which the minimum inhibitory concentration (MIC) with Pseudomonas aeruginosa [1] is over 50 µg/mL; in assay [2], over 50 µg/mL; in the assay on Klebsiella pneumoniae, over 50 µg/mL; in the assay with Bacillus subtilis [4], 50 µg/mL (≈ 169 µM); in the assay with Escherichia coli [7], over 50 µg/mL; in the assay with Staphylococcus aureus [12], over 50 µg/mL.
`Brc1ccc(-c2nnn3c2-c2ccccc2SC3)cc1`: the minimum inhibitory concentration (MIC) in the assay with Pseudomonas aeruginosa [1] was over 50 µg/mL; in [2], over 50 µg/mL; in the assay with Klebsiella pneumoniae it was 50 µg/mL (≈ 145 µM); in the assay on Bacillus subtilis [4], over 50 µg/mL; in the assay on Escherichia coli [7], 25 µg/mL (≈ 72.6 µM); in the assay on Staphylococcus aureus [12] it was 50 µg/mL (≈ 145 µM).
Turning to `Cc1ccc(-c2nnn3c2-c2ccccc2SC3)cc1`, the MIC with Pseudomonas aeruginosa [1] was 50 µg/mL (≈ 179 µM); in [2], 50 µg/mL (≈ 179 µM); with Klebsiella pneumoniae it was 50 µg/mL (≈ 179 µM); with Bacillus subtilis [4] it was 50 µg/mL (≈ 179 µM); in the assay with Escherichia coli [7], over 50 µg/mL; in the assay on Staphylococcus aureus [12] it was over 50 µg/mL.
With `Cc1ccc(-c2nnn3c2-c2ccccc2S(=O)(=O)C3)cc1`, the minimal inhibitory concentration (MIC) in the assay with Pseudomonas aeruginosa [1] was found to be 50 µg/mL (≈ 161 µM); in assay [2], 25 µg/mL (≈ 80.3 µM); in the assay with Klebsiella pneumoniae, 50 µg/mL (≈ 161 µM); in the assay on Bacillus subtilis [4], 25 µg/mL (≈ 80.3 µM); in the assay on Escherichia coli [7], 25 µg/mL (≈ 80.3 µM); with Staphylococcus aureus [12], 50 µg/mL (≈ 161 µM).
For `Cc1cccc(-c2nnn3c2-c2ccccc2SC3)c1`, the MIC (in the assay with Pseudomonas aeruginosa [1]; in assay [2]; with Klebsiella pneumoniae; in the assay with Bacillus subtilis [4]; with Escherichia coli [7]; in the assay on Staphylococcus aureus [12]) was over 50 µg/mL throughout.
As for `O=S1(=O)Cn2nnc(-c3ccccc3)c2-c2ccccc21`, the MIC is over 50 µg/mL with Pseudomonas aeruginosa [1]; 25 µg/mL (≈ 84.1 µM) in assay [2]; over 50 µg/mL in the assay on Klebsiella pneumoniae; 50 µg/mL (≈ 168 µM) in the assay with Bacillus subtilis [4]; over 50 µg/mL in the assay with Escherichia coli [7]; 25 µg/mL (≈ 84.1 µM) in the assay on Staphylococcus aureus [12].

Values taken from ChEMBL document CHEMBL4811306, “Fused benzo[1,3]thiazine-1,2,3-triazole hybrids: Microwave-assisted one-pot synthesis, in vitro antibacterial, antibiofilm, and in silico ADME studies” (2021).
